This is an account of results in patent publication US12037344B2, “NLRP3 modulators” (INNATE TUMOR IMMUNITY, INC., priority 2018, dated 2024).

For one assay, the system named is THP-1 cells. Kind of assay: Measurement of IL-1β production, hTRF protocol (second alternative procedure), THP-1 cells. Particulars: Homo sapiens, THP-1, IL-1β production, human; read-out: NLRP3 hILIB EC50. It is filed as cell-based, human. Put shortly: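 Compounds, dilution series starting at a final 10 μM, were incubated 2 hours at 37° C with PMA-differentiated THP-1 cells (50 ng/ml overnight; 50,000 cells/well, 2% FBS RPMI). Released IL-1β quantified in supernatant by hTRF kit with 1:40 antibody dilution, 4° C overnight, 665/615 nm ratio.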

A further assay deals with T1, TLR8 (Homo sapiens, UniProt Q9NR97).
T1 construct: human HEK-Blue cells co-expressing a TLR7 or TLR8 gene
T1 sequence (Q9NR97 27-1041): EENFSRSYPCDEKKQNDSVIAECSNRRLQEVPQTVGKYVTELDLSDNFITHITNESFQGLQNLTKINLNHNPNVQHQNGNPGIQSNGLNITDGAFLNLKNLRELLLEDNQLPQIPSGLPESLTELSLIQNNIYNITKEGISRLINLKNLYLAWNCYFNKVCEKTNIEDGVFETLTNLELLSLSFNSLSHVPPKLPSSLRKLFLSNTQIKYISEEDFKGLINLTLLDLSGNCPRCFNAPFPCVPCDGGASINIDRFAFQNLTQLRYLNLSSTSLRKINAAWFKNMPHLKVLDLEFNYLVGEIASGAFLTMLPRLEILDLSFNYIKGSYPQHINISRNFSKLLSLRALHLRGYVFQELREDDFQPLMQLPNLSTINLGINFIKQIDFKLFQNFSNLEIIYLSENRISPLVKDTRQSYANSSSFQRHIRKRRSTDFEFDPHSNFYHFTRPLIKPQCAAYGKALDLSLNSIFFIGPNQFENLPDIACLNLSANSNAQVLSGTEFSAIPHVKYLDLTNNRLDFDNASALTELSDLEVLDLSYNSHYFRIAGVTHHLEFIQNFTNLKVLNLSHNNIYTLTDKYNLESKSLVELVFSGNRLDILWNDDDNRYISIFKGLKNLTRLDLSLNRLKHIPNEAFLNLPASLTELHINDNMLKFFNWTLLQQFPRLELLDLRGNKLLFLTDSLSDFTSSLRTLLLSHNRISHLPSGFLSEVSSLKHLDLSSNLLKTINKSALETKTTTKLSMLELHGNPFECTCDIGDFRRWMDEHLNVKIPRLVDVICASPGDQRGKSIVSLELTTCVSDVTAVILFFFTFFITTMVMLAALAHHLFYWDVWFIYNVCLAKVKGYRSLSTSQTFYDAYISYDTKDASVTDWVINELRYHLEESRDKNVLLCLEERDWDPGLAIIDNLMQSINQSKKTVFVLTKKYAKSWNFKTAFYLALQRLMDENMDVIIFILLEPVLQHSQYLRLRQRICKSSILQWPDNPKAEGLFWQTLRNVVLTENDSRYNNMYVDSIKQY
Briefly: In vitro human TLR8 binding reporter assay (HEK-Blue, NF-kB/AP1-inducible SEAP). It is filed as cell-based. Particulars: activity range class, read-out: TLR8 Agonist EC50. An outline of the steps:
(§1)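 HEK-Blue cells expressing human TLR7 or TLR8 with NF-kB/AP1-inducible SEAP reporter, plated 24 h, then compound-treated 18 h at 37° C, 5% CO2. EC50 normalized to 100% Ymax set by 50 μM reference standard.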
In general terms: Reporter assays use an easily measured gene product as a stand-in for the process of interest.

The next assay concerns the target T2, TLR7 (Homo sapiens, UniProt Q9NYK1).
T2 construct: human HEK-Blue cells co-expressing a TLR7 or TLR8 gene
T2 sequence (Q9NYK1 27-1049): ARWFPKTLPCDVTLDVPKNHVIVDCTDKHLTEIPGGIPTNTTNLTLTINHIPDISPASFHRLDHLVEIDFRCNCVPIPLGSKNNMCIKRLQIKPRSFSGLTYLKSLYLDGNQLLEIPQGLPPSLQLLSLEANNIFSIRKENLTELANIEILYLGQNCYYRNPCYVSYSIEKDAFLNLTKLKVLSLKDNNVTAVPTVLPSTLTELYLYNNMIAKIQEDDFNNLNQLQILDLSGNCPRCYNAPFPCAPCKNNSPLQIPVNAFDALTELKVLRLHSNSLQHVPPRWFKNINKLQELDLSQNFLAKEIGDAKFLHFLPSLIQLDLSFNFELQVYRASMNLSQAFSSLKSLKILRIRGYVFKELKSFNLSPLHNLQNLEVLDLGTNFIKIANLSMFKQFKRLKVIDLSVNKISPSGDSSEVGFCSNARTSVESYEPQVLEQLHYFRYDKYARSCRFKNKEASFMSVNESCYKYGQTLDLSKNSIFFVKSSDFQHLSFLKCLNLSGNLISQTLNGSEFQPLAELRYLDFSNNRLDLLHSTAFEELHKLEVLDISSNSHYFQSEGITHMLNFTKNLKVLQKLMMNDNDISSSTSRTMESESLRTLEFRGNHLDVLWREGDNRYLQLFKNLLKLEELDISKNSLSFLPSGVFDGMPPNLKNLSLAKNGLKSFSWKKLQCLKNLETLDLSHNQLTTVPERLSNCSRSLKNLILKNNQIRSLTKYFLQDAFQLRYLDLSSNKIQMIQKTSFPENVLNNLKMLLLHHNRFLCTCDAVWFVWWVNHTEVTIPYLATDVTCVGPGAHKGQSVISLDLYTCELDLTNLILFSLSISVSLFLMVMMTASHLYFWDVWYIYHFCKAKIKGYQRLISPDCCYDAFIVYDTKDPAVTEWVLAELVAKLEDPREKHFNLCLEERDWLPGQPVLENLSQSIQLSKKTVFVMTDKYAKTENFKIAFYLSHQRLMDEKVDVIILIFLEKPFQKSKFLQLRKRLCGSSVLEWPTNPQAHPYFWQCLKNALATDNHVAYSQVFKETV
Kind of assay: In vitro human TLR7 binding reporter assay (HEK-Blue, NF-kB/AP1-inducible SEAP). Format: cell-based. Particulars: activity range class, read-out: TLR7 Agonist EC50. An outline of the steps: as §1

As a reminder, the EC50 is the concentration giving half of the maximal effect. With `CCC(=O)NCCn1cc2c(n1)c(N)nc1cc(-c3cc[nH]n3)ccc12` [Example 48], the EC50 in the assay on THP-1 cells is 5.2 µM; on TLR8, > 100 µM; on TLR7, > 100 µM.

Consider `Cc1cccc(C(=O)NCCn2cc3c(n2)c(N)nc2cc(-c4cc[nH]n4)ccc23)n1` [Example 49], for which the EC50 with THP-1 cells is 0.61 µM; at TLR8 it was 20 to 100 µM; on TLR7 it was > 100 µM.

As to `Cc1nccc(C(=O)NCCn2cc3c(n2)c(N)nc2cc(-c4cc[nH]n4)ccc23)n1` [Example 50], the concentration for a half-maximal effect (EC50) is 1.43 µM in the assay with THP-1 cells, > 100 µM at TLR8 and > 100 µM at TLR7.

Take `COc1ccc(C(=O)NCCn2cc3c(n2)c(N)nc2cc(-c4cc[nH]n4)ccc23)nn1` [Example 51]: the EC50 in the assay on THP-1 cells is 18.8 µM; at TLR8 it was > 100 µM; on TLR7, > 100 µM.

As for `Cc1cnc(C(=O)NCCn2cc3c(n2)c(N)nc2cc(-c4cc[nH]n4)ccc23)cn1` [Example 52], the EC50 in the assay on THP-1 cells was 0.62 µM; at TLR8, > 100 µM; on TLR7, > 100 µM.

`Nc1nc2cc(-c3cc[nH]n3)ccc2c2cn(CCNC(=O)c3ncccc3F)nc12` [Example 53]: the results for the half-maximal effective concentration (EC50) in the assay on THP-1 cells, on TLR8 and on TLR7 were 0.45 µM, > 100 µM and > 100 µM, respectively.

As for `Nc1nc2cc(-c3cc[nH]n3)ccc2c2cn(CCNC(=O)c3cc(F)ccn3)nc12` [Example 54], the EC50 is 0.19 µM in the assay with THP-1 cells, > 100 µM at TLR8 and 20 to 100 µM on TLR7.

As to `Nc1nc2cc(-c3cc[nH]n3)ccc2c2cn(CCNC(=O)c3cccc(F)n3)nc12` [Example 55], the EC50 with THP-1 cells is 0.39 µM; on TLR8, 20 to 100 µM; on TLR7, 20 to 100 µM.

For the compound `Cc1nc(C(=O)NCCn2cc3c(n2)c(N)nc2cc(-c4cc[nH]n4)ccc23)ccc1C(F)(F)F` [Example 56], the EC50 was 0.31 µM in the assay on THP-1 cells, 1 to 20 µM at TLR8 and 20 to 100 µM on TLR7.

`Nc1nc2cc(-c3cc[nH]n3)ccc2c2cn(CCNC(=O)c3cc(CO)ccn3)nc12` [Example 57]: the concentration giving a half-maximal response (EC50) in the assay with THP-1 cells was 2.21 µM; at TLR8, > 100 µM; at TLR7 it was > 100 µM.

For the compound `Nc1nc2cc(-c3cc[nH]n3)ccc2c2cn(CCNC(=O)c3ccc(OCc4ccccc4)cn3)nc12` [Example 58], the EC50 was 0.3 µM in the assay on THP-1 cells, 1 to 20 µM on TLR8 and > 100 µM on TLR7.

As for `COc1ccc(C(=O)NCCn2cc3c(n2)c(N)nc2cc(-c4cc[nH]n4)ccc23)nc1` [Example 59], the EC50 in the assay on THP-1 cells is 0.47 µM; on TLR8, > 100 µM; on TLR7, > 100 µM.

`Nc1nc2cc(-c3cc[nH]n3)ccc2c2cn(CCNC(=O)c3cccc(Cl)n3)nc12` [Example 60]: the figures for the concentration giving a half-maximal response (EC50) with THP-1 cells, at TLR8 and on TLR7 were 0.27 µM, > 100 µM and > 100 µM, respectively.

As to `Nc1nc2cc(-c3cc[nH]n3)ccc2c2cn(CCNC(=O)c3cc(Cl)ccn3)nc12` [Example 61], the 50% effective concentration (EC50) in the assay on THP-1 cells is 0.12 µM; at TLR8, > 100 µM; at TLR7, 20 to 100 µM.

In the case of `Nc1nc2cc(-c3cc[nH]n3)ccc2c2cn(CCNC(=O)c3ccc(C(F)(F)F)cn3)nc12` [Example 62], the results for the 50% effective concentration (EC50) with THP-1 cells, at TLR8 and on TLR7 were 0.28 µM, > 100 µM and 20 to 100 µM, respectively.

As for `COC(=O)c1cccc(C(=O)NCCn2cc3c(n2)c(N)nc2cc(-c4cc[nH]n4)ccc23)n1` [Example 63], the EC50 with THP-1 cells was 1.61 µM; at TLR8 it was > 100 µM; on TLR7, > 100 µM.

With `N#Cc1ccc(C(=O)NCCn2cc3c(n2)c(N)nc2cc(-c4cc[nH]n4)ccc23)nc1` [Example 64], the EC50 in the assay with THP-1 cells is 0.48 µM; on TLR8 it was > 100 µM; on TLR7, > 100 µM.

As to `COc1cccc(C(=O)NCCn2cc3c(n2)c(N)nc2cc(-c4cc[nH]n4)ccc23)n1` [Example 65], the figures for the EC50 with THP-1 cells, at TLR8 and at TLR7 were 0.35 µM, 20 to 100 µM and > 100 µM, respectively.

With `Nc1nc2cc(-c3cc[nH]n3)ccc2c2cn(CCNC(=O)c3ncc(F)cc3F)nc12` [Example 66], the EC50 in the assay with THP-1 cells was 0.8 µM; on TLR8, > 100 µM; at TLR7, > 100 µM.

With `Nc1nc2cc(-c3cc[nH]n3)ccc2c2cn(CCNC(=O)c3ccc(OC(F)(F)F)cn3)nc12` [Example 67], the EC50 with THP-1 cells is 0.38 µM; on TLR8, > 100 µM; at TLR7, > 100 µM.

As to `Cc1nc(C(=O)NCCn2cc3c(n2)c(N)nc2cc(-c4cc[nH]n4)ccc23)c(C)o1` [Example 68], the half-maximal effective concentration (EC50) in the assay on THP-1 cells was 0.37 µM; at TLR8 it was 20 to 100 µM; at TLR7, > 100 µM.

As to `Nc1nc2cc(-c3cc[nH]n3)ccc2c2cn(CCNC(=O)c3ccon3)nc12` [Example 69], the 50% effective concentration (EC50) was 0.7 µM in the assay with THP-1 cells, > 100 µM at TLR8 and > 100 µM on TLR7.

Consider `Nc1nc2cc(-c3cc[nH]n3)ccc2c2cn(CCNC(=O)c3ncccn3)nc12` [Example 70], for which the EC50 in the assay on THP-1 cells is 1.83 µM; at TLR8, > 100 µM; on TLR7 it was > 100 µM.

With `Cc1nc(C(=O)NCCn2cc3c(n2)c(N)nc2cc(-c4cc[nH]n4)ccc23)c(C(F)(F)F)o1` [Example 71], the 50% effective concentration (EC50) is 0.81 µM with THP-1 cells, 20 to 100 µM on TLR8 and 20 to 100 µM on TLR7.

Take `Nc1nc2cc(-c3cc[nH]n3)ccc2c2cn(CCNC(=O)c3ccc(Cl)cn3)nc12` [Example 72]: the concentration for a half-maximal effect (EC50) with THP-1 cells is 0.14 µM; at TLR8, 20 to 100 µM; on TLR7 it was 20 to 100 µM.

Take `Nc1nc2cc(-c3cc[nH]n3)ccc2c2cn(CCNC(=O)c3cccnn3)nc12` [Example 73]: the concentration giving a half-maximal response (EC50) was 2.96 µM in the assay with THP-1 cells, > 100 µM on TLR8 and > 100 µM at TLR7.

With `Nc1nc2cc(-c3cc[nH]n3)ccc2c2cn(CCNC(=O)c3ccccc3F)nc12` [Example 74], the results for the concentration giving a half-maximal response (EC50) with THP-1 cells, at TLR8 and on TLR7 were 0.25 µM, 20 to 100 µM and > 100 µM, respectively.

As for `Nc1nc2cc(-c3cc[nH]n3)ccc2c2cn(CCNC(=O)c3ccncn3)nc12` [Example 75], the 50% effective concentration (EC50) in the assay on THP-1 cells was 0.64 µM; at TLR8 it was > 100 µM; at TLR7, > 100 µM.

Take `Cc1nc(C(=O)NCCn2cc3c(n2)c(N)nc2cc(-c4cc[nH]n4)ccc23)co1` [Example 76]: the half-maximal effective concentration (EC50) in the assay with THP-1 cells is 0.33 µM; on TLR8, > 100 µM; at TLR7, > 100 µM.
